IC50 data for 29 compounds are collected here from patent publication US12624018B1, “Inhibitors of RIPK2 and medical uses thereof” (Odyssey Therapeutics, Inc., priority 2022, dated 2026).

The structures appear in SMILES notation. Bounds are passed on as bounds.

The target in the test is T1, RIPK2 enzyme (Homo sapiens, UniProt O43353).
T1 construct: purchased Carna 09-128
T1 sequence (O43353 1-299 limits assumed): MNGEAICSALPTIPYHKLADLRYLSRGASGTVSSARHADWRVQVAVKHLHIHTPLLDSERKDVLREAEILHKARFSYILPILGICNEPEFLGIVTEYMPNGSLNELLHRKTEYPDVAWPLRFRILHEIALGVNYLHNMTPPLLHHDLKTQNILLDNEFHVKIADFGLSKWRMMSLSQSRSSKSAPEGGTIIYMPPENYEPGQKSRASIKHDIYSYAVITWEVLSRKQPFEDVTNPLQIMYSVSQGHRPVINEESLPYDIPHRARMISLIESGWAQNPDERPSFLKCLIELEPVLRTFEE
Kind of test: RIPK2 inhibition (ADP-Glo Kinase Assay). It is filed as biochemical. The conditions noted are these: RIPK2 5 nM, ATP 150 μM, MBP substrate, read-out: RIPK2 IC50. The essentials: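 Human RIPK2 (5 nM) preincubated with compound 30 min at room temperature in 50 mM HEPES pH 7.5, 10 mM MgCl2, 2 mM DTT, 1 mM EGTA, 0.01% Brij-35, 0.05% BSA; native swine MBP as substrate. ADP formed quantified by ADP-Glo luminescence; percent inhibition relative to DMSO and no-enzyme controls.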
As a reminder, the IC50 is the concentration that gives 50% inhibition. On to `Cc1cc(CC(=O)Nc2cc(C3CC3)n(C)n2)ccc1Oc1ccnc2ccc(S(C)(=O)=O)cc12` [Compound 235, N-(5-cyclopropyl-1-methyl-1H-pyrazol-3-yl)-2-(3-methyl-4-((6-(methylsulfonyl)quinolin-4-yl)oxy)phenyl)acetamide], for which the IC50 was less than 2.5 nM.

In the case of `Cc1cc(CC(=O)Nc2cc(C(C)(C)O)[nH]n2)ccc1Oc1ccnc2ccc(S(C)(=O)=O)cc12` [Compound 236, N-(5-(2-hydroxypropan-2-yl)-1H-pyrazol-3-yl)-2-(3-methyl-4-((6-(methylsulfonyl)quinolin-4-yl)oxy)phenyl)acetamide], the IC50 was less than 2.5 nM.

On to `Cc1cc(CC(=O)Nc2cnn(C(C)(C)C)c2)ccc1Oc1ccnc2ccc(S(=O)(=O)CC3COC3)cc12` [Compound 240, N-(1-(tert-butyl)-1H-pyrazol-4-yl)-2-(3-methyl-4-((6-((oxetan-3-ylmethyl)sulfonyl)quinolin-4-yl)oxy)phenyl)acetamide], for which the IC50 was less than 2.5 nM.

In the case of `Cc1cc(CC(=O)Nc2cnn(C(C)(C)C)c2)ccc1Oc1ccnc2ccc(S(=O)(=O)C3CCC(=O)NC3)cc12` (centres unmarked) [Compound 243, N-(1-(tert-butyl)-1H-pyrazol-4-yl)-2-(3-methyl-4-((6-((6-oxopiperidin-3-yl)sulfonyl)quinolin-4-yl)oxy)phenyl)acetamide], the IC50 is less than 2.5 nM.

In the case of `Cc1cc(CC(=O)Nc2cnn(C(C)(C)C)c2)ccc1Oc1ccnc2ccc(-c3ncc(CO)cn3)cc12` [Compound 244, N-(1-(tert-butyl)-1H-pyrazol-4-yl)-2-(4-((6-(5-(hydroxymethyl)pyrimidin-2-yl)quinolin-4-yl)oxy)-3-methylphenyl)acetamide], the IC50 was less than 2.5 nM.

As to `Cc1cc(CC(=O)Nc2cnn(C(C)(C)C)c2)ccc1Oc1ccnc2ccc(-c3ccc[nH]c3=O)cc12` [Compound 245, N-(1-(tert-butyl)-1H-pyrazol-4-yl)-2-(3-methyl-4-((6-(2-oxo-1,2-dihydropyridin-3-yl)quinolin-4-yl)oxy)phenyl)acetamide], the IC50 is less than 2.5 nM.

As for `Cc1cc(CC(=O)Nc2cnn(C(C)(C)C)c2)ccc1Oc1ccnc2ccc(-c3cccn(C)c3=O)cc12` [Compound 246, N-(1-(tert-butyl)-1H-pyrazol-4-yl)-2-(3-methyl-4-((6-(1-methyl-2-oxo-1,2-dihydropyridin-3-yl)quinolin-4-yl)oxy)phenyl)acetamide], the IC50 was 3.8 nM.

Take `Cc1cc(CC(=O)Nc2cnn(C(C)(C)C)c2)ccc1Oc1ccnc2ccc(-c3ncc[nH]c3=O)cc12` [Compound 247, N-(1-(tert-butyl)-1H-pyrazol-4-yl)-2-(3-methyl-4-((6-(3-oxo-3,4-dihydropyrazin-2-yl)quinolin-4-yl)oxy)phenyl)acetamide]: the IC50 was less than 2.5 nM.

Turning to `Cc1c(Oc2ccnc3ccc(S(=O)(=O)C4COC4)cc23)ccc(CC(=O)Nc2cnn(C(C)(C)C)c2)c1F` [Compound 248, N-(1-(tert-butyl)-1H-pyrazol-4-yl)-2-(2-fluoro-3-methyl-4-((6-(oxetan-3-ylsulfonyl)quinolin-4-yl)oxy)phenyl)acetamide], the IC50 is less than 2.5 nM.

Turning to `Cc1c(Oc2ccnc3ccc(S(=O)(=O)C4CCOCC4)cc23)ccc(CC(=O)Nc2cnn(C(C)(C)C)c2)c1F` [Compound 249, N-(1-(tert-butyl)-1H-pyrazol-4-yl)-2-(2-fluoro-3-methyl-4-((6-((tetrahydro-2H-pyran-4-yl)sulfonyl)quinolin-4-yl)oxy)phenyl)acetamide], the IC50 is less than 2.5 nM.

With `Cc1cc(CC(=O)Nc2cnn(C(C)(C)C)c2)ccc1Oc1ccnc2ccc(CN3CCNCC3)cc12` [Compound 252, N-(1-(tert-butyl)-1H-pyrazol-4-yl)-2-(3-methyl-4-((6-(piperazin-1-ylmethyl)quinolin-4-yl)oxy)phenyl)acetamide], the half-inhibitory concentration (IC50) was less than 2.5 nM.

`Cc1cc(CC(=O)Nc2cnn(C(C)(C)C)c2)ccc1Oc1ccnc2ccc(S(N)(=O)=O)cc12` [Compound 254, N-(1-(tert-butyl)-1H-pyrazol-4-yl)-2-(3-methyl-4-((6-sulfamoylquinolin-4-yl)oxy)phenyl)acetamide]: the concentration for half-maximal inhibition (IC50) was less than 2.5 nM.

Consider `CNS(=O)(=O)c1ccc2nccc(Oc3ccc(CC(=O)Nc4cnn(C(C)(C)C)c4)cc3C)c2c1` [Compound 255, N-(1-(tert-butyl)-1H-pyrazol-4-yl)-2-(3-methyl-4-((6-(N-methylsulfamoyl)quinolin-4-yl)oxy)phenyl)acetamide], for which the IC50 was less than 2.5 nM.

`Cc1cc(CC(=O)Nc2cnn(C(C)(C)C)c2)ccc1Oc1ccnc2ccc(S(=O)(=O)N(C)C)cc12` [Compound 256, N-(1-(tert-butyl)-1H-pyrazol-4-yl)-2-(4-((6-(N,N-dimethylsulfamoyl)quinolin-4-yl)oxy)-3-methylphenyl)acetamide]: the 50% inhibitory concentration (IC50) is less than 2.5 nM.

Turning to `Cc1cc(CC(=O)Nc2cnn(C(C)(C)C)c2)ccc1Oc1ccnc2ccc(S(=O)(=O)N3CCCC3)cc12` [Compound 257, N-(1-(tert-butyl)-1H-pyrazol-4-yl)-2-(3-methyl-4-((6-(pyrrolidin-1-ylsulfonyl)quinolin-4-yl)oxy)phenyl)acetamide], the IC50 is less than 2.5 nM.

Take `Cc1cc(CC(=O)Nc2cnn(C(C)(C)C)c2)ccc1Oc1ccnc2ccc(S(=O)(=O)N3CCC3)cc12` [Compound 258, 2-(4-((6-(azetidin-1-ylsulfonyl)quinolin-4-yl)oxy)-3-methylphenyl)-N-(1-(tert-butyl)-1H-pyrazol-4-yl)acetamide]: the IC50 is less than 2.5 nM.

With `Cc1cc(CC(=O)Nc2cnn(C(C)(C)C)c2)ccc1Oc1ccnc2ccc(S(=O)(=O)N3CC(F)C3)cc12` [Compound 259, N-(1-(tert-butyl)-1H-pyrazol-4-yl)-2-(4-((6-((3-fluoroazetidin-1-yl)sulfonyl)quinolin-4-yl)oxy)-3-methylphenyl)acetamide], the IC50 was less than 2.5 nM.

Turning to `Cc1cc(CC(=O)Nc2cnn(C(C)(C)C)c2)ccc1Oc1ccnc2ccc(S(=O)(=O)N3CC(C#N)C3)cc12` [Compound 260, N-(1-(tert-butyl)-1H-pyrazol-4-yl)-2-(4-((6-((3-cyanoazetidin-1-yl)sulfonyl)quinolin-4-yl)oxy)-3-methylphenyl)acetamide], the IC50 turned out to be 2.5 nM.

On to `Cc1cc(CC(=O)Nc2cnn(C(C)(C)C)c2)ccc1Oc1ccnc2ccc(S(=O)(=O)N3CCOCC3)cc12` [Compound 261, N-(1-(tert-butyl)-1H-pyrazol-4-yl)-2-(3-methyl-4-((6-(morpholinosulfonyl)quinolin-4-yl)oxy)phenyl)acetamide], for which the IC50 was less than 2.5 nM.

Take `Cc1cc(CC(=O)Nc2cnn(C(C)(C)C)c2)ccc1Oc1ccnc2ccc(S(=O)(=O)N(C)CCO)cc12` [Compound 262, N-(1-(tert-butyl)-1H-pyrazol-4-yl)-2-(4-((6-(N-(2-hydroxyethyl)-N-methylsulfamoyl)quinolin-4-yl)oxy)-3-methylphenyl)acetamide]: the IC50 was less than 2.5 nM.

Take `COCCN(C)S(=O)(=O)c1ccc2nccc(Oc3ccc(CC(=O)Nc4cnn(C(C)(C)C)c4)cc3C)c2c1` [Compound 263, N-(1-(tert-butyl)-1H-pyrazol-4-yl)-2-(4-((6-(N-(2-methoxyethyl)-N-methylsulfamoyl)quinolin-4-yl)oxy)-3-methylphenyl)acetamide]: the IC50 is less than 2.5 nM.

Turning to `Cc1cc(CC(=O)Nc2cnn(C(C)(C)C)c2)ccc1Oc1ccnc2ccc(NS(C)(=O)=O)cc12` [Compound 264, N-(1-(tert-butyl)-1H-pyrazol-4-yl)-2-(3-methyl-4-((6-(methylsulfonamido)quinolin-4-yl)oxy)phenyl) acetamide], the IC50 is less than 2.5 nM.

`Cc1cc(CC(=O)Nc2cnn(C(C)(C)C)c2)ccc1Oc1ccnc2ccc(N(C)S(C)(=O)=O)cc12` [Compound 265, N-(1-(tert-butyl)-1H-pyrazol-4-yl)-2-(3-methyl-4-((6-(N-methylmethyl-sulfonamido)quinolin-4-yl)oxy)phenyl) acetamide]: the concentration for half-maximal inhibition (IC50) is less than 2.5 nM.

`Cc1cc(CC(=O)Nc2cnn(C(C)(C)C)c2)ccc1Oc1ccnc2ccc(N3CCCS3(=O)=O)cc12` [Compound 266, N-(1-(tert-butyl)-1H-pyrazol-4-yl)-2-(4-((6-(1,1-dioxidoisothiazolidin-2-yl)quinolin-4-yl)oxy)-3-methylphenyl) acetamide]: the IC50 is less than 2.5 nM.

For the compound `Cc1c(Oc2ccnc3ccc(S(N)(=O)=O)cc23)ccc(CC(=O)Nc2cnn(C(C)(C)C)c2)c1F` [Compound 267, N-(1-(tert-butyl)-1H-pyrazol-4-yl)-2-(2-fluoro-3-methyl-4-((6-sulfamoylquinolin-4-yl)oxy)phenyl)acetamide], the IC50 was less than 2.5 nM.

`CNS(=O)(=O)c1ccc2nccc(Oc3ccc(CC(=O)Nc4cnn(C(C)(C)C)c4)c(F)c3C)c2c1` [Compound 268, N-(1-(tert-butyl)-1H-pyrazol-4-yl)-2-(2-fluoro-3-methyl-4-((6-(N-methylsulfamoyl)quinolin-4-yl)oxy)phenyl)acetamide]: the 50% inhibitory concentration (IC50) is less than 2.5 nM.

Turning to `Cc1c(Oc2ccnc3ccc(S(=O)(=O)N(C)C)cc23)ccc(CC(=O)Nc2cnn(C(C)(C)C)c2)c1F` [Compound 269, N-(1-(tert-butyl)-1H-pyrazol-4-yl)-2-(4-((6-(N,N-dimethylsulfamoyl)quinolin-4-yl)oxy)-2-fluoro-3-methylphenyl)acetamide], the concentration for half-maximal inhibition (IC50) is less than 2.5 nM.

Turning to `Cc1c(Oc2ccnc3ccc(S(=O)(=O)N4CCCC4)cc23)ccc(CC(=O)Nc2cnn(C(C)(C)C)c2)c1F` [Compound 270, N-(1-(tert-butyl)-1H-pyrazol-4-yl)-2-(2-fluoro-3-methyl-4-((6-(pyrrolidin-1-ylsulfonyl)quinolin-4-yl)oxy)phenyl)acetamide], the IC50 is less than 2.5 nM.

Take `Cc1c(Oc2ccnc3ccc(S(=O)(=O)N4CCC4)cc23)ccc(CC(=O)Nc2cnn(C(C)(C)C)c2)c1F` [Compound 271, 2-(4-((6-(azetidin-1-ylsulfonyl)quinolin-4-yl)oxy)-2-fluoro-3-methylphenyl)-N-(1-(tert-butyl)-1H-pyrazol-4-yl)acetamide]: the IC50 was less than 2.5 nM.
